Results: PubChem BioAssay (NCI)
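Growth conditions: 96-well plates. Treatment: test compound, 48 hours, 5 concentrations. Analysis: linear interpolation between bracketing concentrations; unreached endpoints set to highest concentration. GI50: concentration for 50% inhibition of growth. TGI denotes the concentration required for complete inhibition of growth.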

What was measured:
Assay in all cases: NCI-60 cell line screen, 48 h
HCC-2998 colon = tested on: HCC-2998 colon
HCT-15 colon = tested on: HCT-15 colon
SNB-75 CNS = tested on: SNB-75 CNS
SW-620 colon = tested on: SW-620 colon
UACC-62 melanoma = tested on: UACC-62 melanoma
UO-31 renal = tested on: UO-31 renal
RPMI-8226 leukemia = tested on: RPMI-8226 leukemia
NCI/ADR-RES ovarian = tested on: NCI/ADR-RES ovarian
T-47D breast = tested on: T-47D breast

O=C1NC(=O)C(CCC(=O)c2ccc3ccccc3c2)C(=O)N1
TGI (HCC-2998 colon): > 100 µM
TGI (HCT-15 colon): > 100 µM
TGI (SNB-75 CNS): > 100 µM
TGI (SW-620 colon): > 100 µM
TGI (UACC-62 melanoma): > 100 µM
TGI (UO-31 renal): > 100 µM

CCCC1N2CCCCC2[C@@H]2c3[nH]c4ccccc4c3CCN12 (stereo not given in full)
TGI (HCC-2998 colon): > 100 µM
TGI (HCT-15 colon): > 100 µM
TGI (RPMI-8226 leukemia): > 100 µM
TGI (SNB-75 CNS): > 100 µM
TGI (SW-620 colon): > 100 µM
TGI (UACC-62 melanoma): > 100 µM
TGI (UO-31 renal): > 100 µM

O=C(CC1(O)C(=O)Nc2ccccc21)c1ccncc1 (stereo not given)
TGI (HCC-2998 colon): > 100 µM
TGI (HCT-15 colon): > 100 µM
TGI (RPMI-8226 leukemia): > 100 µM
TGI (SNB-75 CNS): > 100 µM
TGI (SW-620 colon): > 100 µM
TGI (UACC-62 melanoma): > 100 µM
TGI (UO-31 renal): > 100 µM

CCc1ccccc1NC(=O)C1=C(C)NC(C)=C(C(=O)Nc2ccccc2CC)C1c1ccc2c(c1)OCO2
TGI (HCC-2998 colon): 41 µM
TGI (RPMI-8226 leukemia): 49.5 µM
TGI (SNB-75 CNS): 89.3 µM
TGI (SW-620 colon): > 100 µM
TGI (UO-31 renal): 70.5 µM

O=C1CCC(N2C(=O)c3ccccc3C2=O)C(=O)N1CO (stereo not given)
GI50 (HCT-15 colon): 52200 nM
TGI (HCT-15 colon): > 100 µM
GI50 (NCI/ADR-RES ovarian): > 100000 nM
TGI (NCI/ADR-RES ovarian): > 100 µM
GI50 (RPMI-8226 leukemia): 25100 nM
TGI (RPMI-8226 leukemia): 78.7 µM
GI50 (SNB-75 CNS): > 100000 nM
TGI (SNB-75 CNS): > 100 µM
GI50 (SW-620 colon): 32400 nM
TGI (SW-620 colon): > 100 µM
GI50 (T-47D breast): 78 µM
TGI (T-47D breast): > 100 µM
GI50 (UACC-62 melanoma): 32.6 µM
TGI (UACC-62 melanoma): > 100 µM
GI50 (UO-31 renal): > 100000 nM
TGI (UO-31 renal): > 100 µM

COc1ccc(NC(=O)CC(=O)N/N=C/c2ccc(N(CCC#N)S(C)(=O)=O)cc2)cc1
TGI (HCC-2998 colon): > 100 µM
TGI (HCT-15 colon): > 100 µM
TGI (RPMI-8226 leukemia): > 100 µM
TGI (SNB-75 CNS): > 100 µM
TGI (SW-620 colon): > 100 µM
TGI (UACC-62 melanoma): > 100 µM
TGI (UO-31 renal): > 100 µM

CCN(CC)C(c1ccc(N(C)C)cc1)C(c1ccc(N(C)C)cc1)N(CC)CC (stereo not given)
TGI (HCC-2998 colon): > 73 µM
TGI (HCT-15 colon): > 73 µM
TGI (RPMI-8226 leukemia): > 73 µM
TGI (SNB-75 CNS): > 73 µM
TGI (SW-620 colon): > 73 µM
TGI (UACC-62 melanoma): > 73 µM

CCOC(=O)/C(C#N)=C/c1[nH]c(C(=O)OCc2ccccc2)c(C)c1C
TGI (HCC-2998 colon): > 100 µM
TGI (HCT-15 colon): > 100 µM
TGI (RPMI-8226 leukemia): > 100 µM
TGI (SNB-75 CNS): > 100 µM
TGI (SW-620 colon): > 100 µM
TGI (UACC-62 melanoma): > 100 µM
TGI (UO-31 renal): > 100 µM

Cc1ccc(NC(=O)CC(=O)n2nc(C)c(N=Nc3ccccc3C(=O)O)c2C)cc1
TGI (HCC-2998 colon): > 100 µM
TGI (HCT-15 colon): > 100 µM
TGI (RPMI-8226 leukemia): > 100 µM
TGI (SNB-75 CNS): > 100 µM
TGI (SW-620 colon): > 100 µM
TGI (UACC-62 melanoma): > 100 µM
TGI (UO-31 renal): > 100 µM

COCCCNC(=O)C1C(=O)C(=O)N(CCCOC)C1=O (stereo not given)
TGI (HCC-2998 colon): > 100 µM
TGI (HCT-15 colon): > 100 µM
TGI (RPMI-8226 leukemia): > 100 µM
TGI (SNB-75 CNS): > 100 µM
TGI (SW-620 colon): > 100 µM
TGI (UACC-62 melanoma): > 100 µM
TGI (UO-31 renal): > 100 µM

C/C(O)=C(\N=O)C(=O)Nc1ccc(Cl)cc1Cl
TGI (HCC-2998 colon): > 100 µM
TGI (HCT-15 colon): > 100 µM
TGI (RPMI-8226 leukemia): > 100 µM
TGI (SNB-75 CNS): > 100 µM
TGI (SW-620 colon): > 100 µM
TGI (UACC-62 melanoma): > 100 µM
TGI (UO-31 renal): > 100 µM

C/C(CC(=O)Nc1cc(C)ccc1C)=N\NC(=O)c1ccncc1
TGI (HCC-2998 colon): > 100 µM
TGI (RPMI-8226 leukemia): > 100 µM
TGI (SNB-75 CNS): > 100 µM
TGI (SW-620 colon): > 100 µM
TGI (UACC-62 melanoma): > 100 µM
TGI (UO-31 renal): > 100 µM

NC1=NC(c2ccccc2)CC(c2cc(Cl)ccc2O)=N1 (stereo not given)
TGI (HCC-2998 colon): 29.4 µM
TGI (RPMI-8226 leukemia): 41 µM
TGI (SNB-75 CNS): 31.7 µM
TGI (SW-620 colon): 27 µM
TGI (UACC-62 melanoma): 30.4 µM
TGI (UO-31 renal): 29.2 µM

O=C(Nc1ccc(-c2nc(N3CCOCC3)c3cccn3n2)cc1)Nc1cccnc1
GI50 (HCC-2998 colon): 253 nM
TGI (HCC-2998 colon): > 100 µM
GI50 (HCT-15 colon): 143 nM
TGI (HCT-15 colon): > 100 µM
GI50 (NCI/ADR-RES ovarian): 393 nM
TGI (NCI/ADR-RES ovarian): 6.27 µM
GI50 (RPMI-8226 leukemia): 138 nM
TGI (RPMI-8226 leukemia): 1.36 µM
GI50 (SNB-75 CNS): 43.2 nM
TGI (SNB-75 CNS): 0.64 µM
GI50 (SW-620 colon): 52.4 nM
TGI (SW-620 colon): > 100 µM
GI50 (UO-31 renal): 61.9 nM
TGI (UO-31 renal): 0.546 µM

COc1ccc2nc3c(C(=O)NCCN(C)C)cccc3nc2c1
TGI (HCC-2998 colon): 20 µM
TGI (HCT-15 colon): 16.6 µM
TGI (SNB-75 CNS): 25.5 µM
TGI (SW-620 colon): 81.6 µM
TGI (UACC-62 melanoma): 21.2 µM
TGI (UO-31 renal): 47.9 µM

NC(=O)COC(=O)c1c(Cl)nc2sccn12
TGI (HCC-2998 colon): > 100 µM
TGI (HCT-15 colon): > 55.1 µM
TGI (RPMI-8226 leukemia): > 66.4 µM
TGI (SNB-75 CNS): > 100 µM
TGI (SW-620 colon): > 64.7 µM
TGI (UACC-62 melanoma): > 100 µM
TGI (UO-31 renal): > 100 µM

CCC[CH2][Sn]1([CH2]CCC)[O]C(=O)CN=Cc2c(ccc3ccccc23)[O]1
GI50 (HCC-2998 colon): 777 nM
TGI (HCC-2998 colon): 2.02 µM
GI50 (HCT-15 colon): 491 nM
TGI (HCT-15 colon): 1.75 µM
GI50 (RPMI-8226 leukemia): 154 nM
TGI (RPMI-8226 leukemia): 0.529 µM
GI50 (SNB-75 CNS): 295 nM
TGI (SNB-75 CNS): 1.03 µM
GI50 (SW-620 colon): 184 nM
TGI (SW-620 colon): 0.417 µM
GI50 (UACC-62 melanoma): 0.229 µM
TGI (UACC-62 melanoma): 0.558 µM
GI50 (UO-31 renal): 635 nM
TGI (UO-31 renal): 1.92 µM

Nc1nc(N(Cc2ccccc2)c2ccccc2)c2cn[nH]c2n1
GI50 (HCC-2998 colon): 6410 nM
TGI (HCC-2998 colon): > 100 µM
GI50 (HCT-15 colon): 4240 nM
TGI (HCT-15 colon): > 100 µM
GI50 (RPMI-8226 leukemia): 1680 nM
TGI (RPMI-8226 leukemia): > 100 µM
GI50 (SNB-75 CNS): 2470 nM
TGI (SNB-75 CNS): > 100 µM
GI50 (SW-620 colon): 3930 nM
TGI (SW-620 colon): > 100 µM
GI50 (T-47D breast): 4.34 µM
TGI (T-47D breast): > 100 µM
GI50 (UACC-62 melanoma): 4.32 µM
TGI (UACC-62 melanoma): > 100 µM
GI50 (UO-31 renal): 1800 nM
TGI (UO-31 renal): > 100 µM

O=C1c2cccc([N+](=O)[O-])c2C(=O)N1c1ncn[nH]1
TGI (HCT-15 colon): > 100 µM
TGI (NCI/ADR-RES ovarian): > 100 µM
TGI (RPMI-8226 leukemia): > 100 µM
TGI (SNB-75 CNS): 64.6 µM
TGI (SW-620 colon): > 100 µM
TGI (T-47D breast): > 100 µM
TGI (UACC-62 melanoma): > 100 µM
TGI (UO-31 renal): > 100 µM

NC(=S)N1N=C2c3ccccc3CC[C@@H]2[C@@H]1c1ccccc1
TGI (HCC-2998 colon): > 55.7 µM
TGI (HCT-15 colon): 24.6 µM
TGI (RPMI-8226 leukemia): 32.9 µM
TGI (SNB-75 CNS): 35.6 µM
TGI (SW-620 colon): > 59.3 µM
TGI (UACC-62 melanoma): 26.1 µM
TGI (UO-31 renal): > 94.6 µM

N#CSC1CCCCNC1=O (stereo not given)
TGI (HCC-2998 colon): 32.4 µM
TGI (HCT-15 colon): 28.6 µM
TGI (NCI/ADR-RES ovarian): 29.1 µM
TGI (RPMI-8226 leukemia): 29.3 µM
TGI (T-47D breast): 52.5 µM
TGI (UACC-62 melanoma): 29.1 µM
TGI (UO-31 renal): 31.1 µM

O=C1CCC2(c3ccccc3)Nc3ccncc3N12 (stereo not given)
TGI (HCT-15 colon): > 10 µM
TGI (NCI/ADR-RES ovarian): > 10 µM
TGI (SNB-75 CNS): > 10 µM
TGI (SW-620 colon): > 10 µM
TGI (T-47D breast): > 10 µM
TGI (UACC-62 melanoma): > 10 µM
TGI (UO-31 renal): > 10 µM

Nc1c(-c2ccc(Cl)cc2)[n+]([O-])c2ccccc2[n+]1[O-]
TGI (HCC-2998 colon): > 100 µM
TGI (HCT-15 colon): > 100 µM
TGI (RPMI-8226 leukemia): > 100 µM
TGI (SNB-75 CNS): > 100 µM
TGI (SW-620 colon): > 100 µM
TGI (UACC-62 melanoma): > 100 µM
TGI (UO-31 renal): 55.3 µM

Cn1c2ccccc2c2ccc3c(c21)C(=O)c1ccccc1C3=O
TGI (HCC-2998 colon): > 100 µM
TGI (HCT-15 colon): 50.2 µM
TGI (NCI/ADR-RES ovarian): 45.4 µM
TGI (RPMI-8226 leukemia): 36.1 µM
TGI (SW-620 colon): > 100 µM
TGI (T-47D breast): 49.8 µM
TGI (UACC-62 melanoma): 38.3 µM
TGI (UO-31 renal): > 100 µM
